The text below walks through data of US12692254B2, “Benzimidazole inhibitors of PAD enzymes” (BRISTOL-MYERS SQUIBB COMPANY, priority 2018, dated 2026).

Broadly, the IC50 is the concentration at which inhibition is half-maximal.

The test concerns the target human PAD4 (hPAD4) (Homo sapiens, UniProt Q9UM07). Kind of test: RFMS human PAD4 functional assay (rapid-fire mass spectrum). Format: biochemical. The note with it: 5 nM hPAD4 enzyme, 250 μM BAEE, 50 μM Calcium; 30 min preincubation, 90 min reaction at 37° C. An outline of the steps: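 PAD4 (10 nM) preincubated 30 min with compound (top final 50 μM), then BAEE substrate added in pH 7.5 HEPES buffer with DTT, 50 μM calcium, TPEN; 90 min at 37° C. After TCA quench, citrulline derivatized with phenyl glyoxal (4 mM final, 30 min, 37° C) and quantified by RapidFire MS against internal standard.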

human PAD4 (hPAD4), sequence (Q9UM07 whole entry): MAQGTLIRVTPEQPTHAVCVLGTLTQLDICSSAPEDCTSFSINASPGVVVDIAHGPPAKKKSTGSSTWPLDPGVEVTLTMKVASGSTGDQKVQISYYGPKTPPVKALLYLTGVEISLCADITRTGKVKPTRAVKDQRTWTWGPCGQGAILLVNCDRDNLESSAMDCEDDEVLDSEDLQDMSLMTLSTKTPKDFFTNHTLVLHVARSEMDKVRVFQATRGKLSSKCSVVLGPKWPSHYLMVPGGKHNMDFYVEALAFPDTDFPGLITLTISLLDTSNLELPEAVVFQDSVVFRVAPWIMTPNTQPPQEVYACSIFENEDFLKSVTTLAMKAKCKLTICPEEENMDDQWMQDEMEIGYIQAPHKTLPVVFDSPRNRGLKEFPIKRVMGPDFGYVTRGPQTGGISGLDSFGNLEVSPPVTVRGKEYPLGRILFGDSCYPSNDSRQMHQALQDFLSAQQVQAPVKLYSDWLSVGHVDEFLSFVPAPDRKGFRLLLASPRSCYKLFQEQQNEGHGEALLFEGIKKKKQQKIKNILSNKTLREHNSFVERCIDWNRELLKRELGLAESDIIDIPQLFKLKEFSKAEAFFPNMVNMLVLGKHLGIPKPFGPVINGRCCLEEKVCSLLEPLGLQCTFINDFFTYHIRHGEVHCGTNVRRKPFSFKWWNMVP

`COc1cc(C(=O)N2CC3CCC2[C@@H]3N)cc2nc(-c3cc4ccccc4n3CC3CC3)n(CC3CC(F)(F)C3)c12` (stereo partly drawn) [Example 478, (7R)-2-{2-[1-(cyclopropylmethyl)-1H-indol-2-yl]-1-[(3,3-difluorocyclobutyl)methyl]-7-methoxy-1H-1,3-benzodiazole-5-carbonyl}-2-azabicyclo[2.2.1]heptan-7-amine]: the IC50 stood at 48 nM. The figure for `COc1cc(C(=O)N2CC3CCC2[C@@H]3N)cc2nc(-c3cc4ccccc4n3CC3CC3)n(Cc3cnn(-c4cc(Cl)ccn4)c3)c12` (stereo partly drawn) [Example 392, (7R)-2-(1-{[1-(4-chloropyridin-2-yl)-1H-pyrazol-4-yl]methyl}-2-[1-(cyclopropylmethyl)-1H-indol-2-yl]-7-methoxy-1H-1,3-benzodiazole-5-carbonyl)-2-azabicyclo[2.2.1]heptan-7-amine] is 48 nM; for `COc1cc(C(=O)N2C[C@H]3CC[C@@H]2[C@@H]3N)cc2nc(-c3cc4ccccc4n3CC3CC3)n(CC3CN(c4nccnc4C#N)C3)c12` [Example 64, 3-[3-({5-[(1R,4R,7R)-7-amino-2-azabicyclo[2.2.1]heptane-2-carbonyl]-2-[1-(cyclopropylmethyl)-1H-indol-2-yl]-7-methoxy-1H-1,3-benzodiazol-1-yl}methyl)azetidin-1-yl]pyrazine-2-carbonitrile] it is 23 nM; for `COc1cc(C(=O)N2C[C@H]3CC[C@@H]2[C@@H]3N)cc2nc(-c3cc4cccnc4n3CC3CC3)n(Cc3cnn(C)c3)c12` [Example 243, (1R,4R,7R)-2-{2-[1-(cyclopropylmethyl)-1H-pyrrolo[2,3-b]pyridin-2-yl]-7-methoxy-1-[(1-methyl-1H-pyrazol-4-yl)methyl]-1H-1,3-benzodiazole-5-carbonyl}-2-azabicyclo[2.2.1]heptan-7-amine] it is 33 nM. As for `COc1cc(C(=O)N2CC3CCC2[C@@H]3N)cc2nc(-c3cc4ccc(Br)cc4n3CC3CC3)n(Cc3cnn(C)c3)c12` (stereo partly drawn) [Example 522, (7R)-2-{2-[6-bromo-1-(cyclopropylmethyl)-1H-indol-2-yl]-7-methoxy-1-[(1-methyl-1H-pyrazol-4-yl)methyl]-1H-1,3-benzodiazole-5-carbonyl}-2-azabicyclo[2.2.1]heptan-7-amine], the figure is 23 nM; as for `COc1cnc(N2CC(Cn3c(-c4cc5cccnc5n4CC4CC4)nc4cc(C(=O)N5C[C@H]6CC[C@@H]5[C@@H]6N)cc(OC)c43)C2)cn1` [Example 33, (1R,4R,7R)-2-{2-[1-(cyclopropylmethyl)-1H-pyrrolo[2,3-b]pyridin-2-yl]-7-methoxy-1-{[1-(5-methoxypyrazin-2-yl)azetidin-3-yl]methyl}-1H-1,3-benzodiazole-5-carbonyl}-2-azabicyclo[2.2.1]heptan-7-amine], 87 nM; as for `COc1cc(C(=O)N2C[C@H](N)C[C@@H](F)C2)cc2nc(-c3cc4ccccc4n3CC3CC3)n(CC3(F)CN(C(=O)c4ccccc4)C3)c12` [Example 425, (3R,5R)-1-{1-[(1-benzoyl-3-fluoroazetidin-3-yl)methyl]-2-[1-(cyclopropylmethyl)-1H-indol-2-yl]-7-methoxy-1H-1,3-benzodiazole-5-carbonyl}-5-fluoropiperidin-3-amine], 27 nM. The figure for `COc1cc(C(=O)N2C[C@H]3CC[C@@H]2[C@@H]3N)cc2nc(-c3cc4ccccc4n3CC3CC3)n(CC3CN(c4cncc(C#N)n4)C3)c12` [Example 65, 6-[3-({5-[(1R,4R,7R)-7-amino-2-azabicyclo[2.2.1]heptane-2-carbonyl]-2-[1-(cyclopropylmethyl)-1H-indol-2-yl]-7-methoxy-1H-1,3-benzodiazol-1-yl}methyl)azetidin-1-yl]pyrazine-2-carbonitrile] is 28 nM; for `COc1cc(C(=O)N2C[C@H]3CC[C@@H]2[C@@H]3N)cc2nc(-c3cc4cccnc4n3CC3CC3)n(CC3CN(c4ccnc(C5CC5)n4)C3)c12` [Example 105, (1R,4R,7R)-2-{2-[1-(cyclopropylmethyl)-1H-pyrrolo[2,3-b]pyridin-2-yl]-1-{[1-(2-cyclopropylpyrimidin-4-yl)azetidin-3-yl]methyl}-7-methoxy-1H-1,3-benzodiazole-5-carbonyl}-2-azabicyclo[2.2.1]heptan-7-amine] it is 31 nM.

For the compound `COC(=O)N[C@H]1C[C@H](n2c(-c3cc4cccnc4n3CC3CC3)nc3cc(C(=O)N4CC5CCC4[C@@H]5N)cc(OC)c32)C1` (stereo partly drawn) [Example 296, methyl N-[(1r,3r)-3-{5-[(1R,4R,7R)-7-amino-2-azabicyclo[2.2.1]heptane-2-carbonyl]-2-[1-(cyclopropylmethyl)-1H-pyrrolo[2,3-b]pyridin-2-yl]-7-methoxy-1H-1,3-benzodiazol-1-yl}cyclobutyl]carbamate], the IC50 worked out at 582 nM. As for `COc1cc(C(=O)N2CC3CCC2[C@@H]3N)cc2nc(-c3cc4cccnc4n3CC3CC3)n(CC3CCN(c4ncccn4)C3)c12` (stereo in doubt) [Example 231, (1R,4R,7R)-2-{2-[1-(cyclopropylmethyl)-1H-pyrrolo[2,3-b]pyridin-2-yl]-7-methoxy-1-{[(3S)-1-(pyrimidin-2-yl)pyrrolidin-3-yl]methyl}-1H-1,3-benzodiazole-5-carbonyl}-2-azabicyclo [2.2.1]heptan-7-amine], the figure is 203 nM; as for `COc1cc(C(=O)N2C[C@H](N)C[C@@H](F)C2)cc2nc(-c3cc4cccnc4n3CC3CC3)n(Cc3cnn(-c4cccnc4O)c3)c12` [Example 382, 3-[4-({5-[(3R,5R)-3-amino-5-fluoropiperidine-1-carbonyl]-2-[1-(cyclopropylmethyl)-1H-pyrrolo[2,3-b]pyridin-2-yl]-7-methoxy-1H-1,3-benzodiazol-1-yl}methyl)-1H-pyrazol-1-yl]pyridin-2-ol], 41 nM. The figure for `COc1cc(C(=O)N2C[C@H]3CC[C@@H]2[C@@H]3N)cc2nc(-c3cc4cccnc4n3CC3CC3)n(C3CN(c4ccnc(C#N)n4)C3)c12` [Example 68, 4-(3-{5-[(1R,4R,7R)-7-amino-2-azabicyclo[2.2.1]heptane-2-carbonyl]-2-[1-(cyclopropylmethyl)-1H-pyrrolo[2,3-b]pyridin-2-yl]-7-methoxy-1H-1,3-benzodiazol-1-yl}azetidin-1-yl)pyrimidine-2-carbonitrile] is 124 nM.

On to `COc1cc(C(=O)N2C[C@H]3CC[C@@H]2[C@@H]3N)cc2nc(-c3cccn3CC3CC3)n(CC3CN(c4ccnc(C#N)n4)C3)c12` [Example 311, 4-[3-({5-[(1R,4R,7R)-7-amino-2-azabicyclo[2.2.1]heptane-2-carbonyl]-2-[1-(cyclopropylmethyl)-1H-pyrrol-2-yl]-7-methoxy-1H-1,3-benzodiazol-1-yl}methyl)azetidin-1-yl]pyrimidine-2-carbonitrile], for which the IC50 was found to be 134 nM. The figure for `COC(=O)c1cc(C(=O)N2CC(Cn3c(-c4cc5cccnc5n4CC4CC4)nc4cc(C(=O)N5C[C@H]6CC[C@@H]5[C@@H]6N)cc(OC)c43)C2)ccn1` [Example 129, methyl 4-[3-({5-[(1R,4R,7R)-7-amino-2-azabicyclo[2.2.1]heptane-2-carbonyl]-2-[1-(cyclopropylmethyl)-1H-pyrrolo[2,3-b]pyridin-2-yl]-7-methoxy-1H-1,3-benzodiazol-1-yl}methyl)azetidine-1-carbonyl]pyridine-2-carboxylate] is 116 nM; for `N#Cc1ccc(C(=O)N2CC(Cn3c(-c4cc5ccccc5n4CC4CC4)nc4cc(C(=O)N5C[C@H]6CC[C@@H]5[C@@H]6N)cc(Cl)c43)C2)cc1` [Example 150, 4-[3-({5-[(1R,4R,7R)-7-amino-2-azabicyclo[2.2.1]heptane-2-carbonyl]-7-chloro-2-[1-(cyclopropylmethyl)-1H-indol-2-yl]-1H-1,3-benzodiazol-1-yl}methyl)azetidine-1-carbonyl]benzonitrile] it is 20 nM. The figure for `COc1nccnc1N1CC(Cn2c(-c3cc4cccnc4n3CC3CC3)nc3cc(C(=O)N4C[C@H]5CC[C@@H]4[C@@H]5N)cc(OC)c32)C1` [Example 43, (1R,4R,7R)-2-{2-[1-(cyclopropylmethyl)-1H-pyrrolo[2,3-b]pyridin-2-yl]-7-methoxy-1-{[1-(3-methoxypyrazin-2-yl)azetidin-3-yl]methyl}-1H-1,3-benzodiazole-5-carbonyl}-2-azabicyclo[2.2.1]heptan-7-amine] is 103 nM; for `COc1cc(C(=O)N2C[C@H]3CC[C@@H]2[C@@H]3N)cc2nc(-c3cc4cccnc4n3CC3CC3)n(CC3CN(c4ccnc(S(C)(=O)=O)n4)C3)c12` [Example 18, (1R,4R,7R)-2-{2-[1-(cyclopropylmethyl)-1H-pyrrolo[2,3-b]pyridin-2-yl]-1-{[1-(2-methanesulfonylpyrimidin-4-yl)azetidin-3-yl]methyl}-7-methoxy-1H-1,3-benzodiazole-5-carbonyl}-2-azabicyclo[2.2.1]heptan-7-amine] it is 54 nM. The figure for `COc1cc(C(=O)N2CC3CCC2[C@@H]3N)cc2nc(-c3cccn3CC3CC3)n(CC3CN(c4cncc(C#N)n4)C3)c12` (stereo partly drawn) [Example 313, 6-[3-({5-[(1R,4R,7R)-7-amino-2 azabicyclo[2.2.1]heptane-2-carbonyl]-2-[1-(cyclopropylmethyl)-1H-pyrro1-2-yl]-7-methoxy-1H-1,3-benzodiazol-1-yl}methyl)azetidin-1-yl]pyrazine-2-carbonitrile] is 403 nM; for `COc1cc(C(=O)N2C[C@H]3CC[C@@H]2[C@@H]3N)cc2nc(-c3cc4cccnc4n3C)n(C[C@H]3CCN(c4cncc(C#N)c4)C3)c12` [Example 215, 5[(3S)-3-({5-[(1R,4R,7R)-7-amino-2-azabicyclo[2.2.1]heptane-2-carbonyl]-7-methoxy-2-{1-methyl-1H-pyrrolo[2,3-b]pyridin-2-yl}-1H-1,3-benzodiazol-1-yl}methyl)pyrrolidin-1-yl]pyridine-3-carbonitrile] it is 148 nM.
